Laboratory results: patent US11591355B2 (Peloton Therapeutics, Inc., priority 2017, dated 2023)

Assays:
Human CD73 = target: T1, Human CD73 (Homo sapiens, UniProt P21589); assay: CD73 Enzyme Assay; type: biochemical; details: 0.25 nM hCD73, 25 μM AMP, kinetic read at 360 nm; read-out: CD73 Enzyme Assay IC50
T1 construct: purchased R&D Systems; host or cells: CHO cells
T1 sequence (P21589 27-549): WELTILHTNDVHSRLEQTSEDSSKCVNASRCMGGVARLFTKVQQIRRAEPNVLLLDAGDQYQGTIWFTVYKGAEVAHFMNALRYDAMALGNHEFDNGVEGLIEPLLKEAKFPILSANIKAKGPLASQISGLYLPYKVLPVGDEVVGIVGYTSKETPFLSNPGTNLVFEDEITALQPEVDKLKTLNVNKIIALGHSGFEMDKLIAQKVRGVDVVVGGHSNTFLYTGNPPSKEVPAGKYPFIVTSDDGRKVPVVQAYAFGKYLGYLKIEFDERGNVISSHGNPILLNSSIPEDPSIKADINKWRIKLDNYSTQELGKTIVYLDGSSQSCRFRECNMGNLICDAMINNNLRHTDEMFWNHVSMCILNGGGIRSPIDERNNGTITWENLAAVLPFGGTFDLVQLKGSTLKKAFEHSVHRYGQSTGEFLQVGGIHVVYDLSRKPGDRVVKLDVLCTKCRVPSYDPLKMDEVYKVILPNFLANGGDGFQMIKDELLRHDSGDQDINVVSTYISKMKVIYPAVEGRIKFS

[1] = target: T2, CD73 on U138 human neuroglioma cells (Homo sapiens, UniProt P21589); assay: CD73 Cell-Based Assay; details: U138 cells, AMP substrate, 2 hours at 37° C., inorganic phosphate by malachite green
T2 construct: U138 cells were obtained from ATCC and cultured in DMEM with 10% FBS; host or cells: U138 human neuroglioma cells
T2 sequence (P21589 27-549): T1 sequence (P21589 27-549)
Procedure, shortened: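 Whole U138 cells washed free of phosphate were incubated with 200 μM AMP (mixture concentration before equal-volume addition) plus compound in HEPES-buffered saline, pH 7.4, for 2 h at 37 °C, 5% CO2. Adenosine-forming activity read as inorganic phosphate released into supernatant by malachite green.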

SMILES | IC50 (Human CD73) [µM] | IC50 [1] [µM]
CC(C)OP(=O)(O)CS(=O)(=O)C[C@H]1O[C@@H](n2ccc3c(NC4CCCC4)nc(Cl)nc32)[C@H](O)[C@@H]1O [Compound 160, [(2S,3S,4R,5R)-5-[2-chloro-4-(cyclo-pentylamino)pyrrolo-[2,3-d]pyrimidin-7-yl]-3,4-dihydroxy-tetrahydrofuran-2-yl]methylsulfonyl-methyl-isopropoxy-phosphinic acid] | 0.1 to 1 | 0.1 to 1
CC(C)(C)C(=O)OCOP(=O)(O)CS(=O)(=O)C[C@H]1O[C@@H](n2ccc3c(NC4CCCC4)nc(Cl)nc32)[C@H](O)[C@@H]1O [Compound 161, [(2S,3S,4R,5R)-5-[2-chloro-4-(cyclopentyl-amino)pyrrolo[2,3-d]-pyrimidin-7-yl]-3,4-dihydroxy-tetrahydro-furan-2-yl]methyl-sulfonylmethyl-(2,2-dimethylpropanoyl-oxymethoxy)phos-phinic acid] | < 0.01 | < 0.01
CC(C)Nc1nc(Cl)nc2c1ccn2[C@@H]1O[C@H](CS(=O)(=O)CP(=O)(O)O)[C@@H](O)[C@H]1O [Compound 162, [(2S,3S,4R,5R)-5-[2-chloro-4-(isopropyl-amino)pyrrolo[2,3-d]-pyrimidin-7-yl]-3,4-dihydroxy-tetrahydro-furan-2-yl]methyl-sulfonylmethylphos-phonic acid] | 0.01 to 0.1 | 0.01 to 0.1
O=P(O)(O)CS(=O)(=O)C[C@H]1O[C@@H](n2ccc3c(N4CCCC4)nc(Cl)nc32)[C@H](O)[C@@H]1O [Compound 163, [(2S,3S,4R,5R)-5-(2-chloro-4-pyrrolidin-1-yl-pyrrolo[2,3-d]-pyrimidin-7-yl)-3,4-dihydroxy-tetrahydro-furan-2-yl]methyl-sulfonylmethylphos-phonic acid] | 0.01 to 0.1 | 0.01 to 0.1
O=P(O)(O)CS(=O)(=O)C[C@H]1O[C@@H](n2ccc3c(N4CCC(F)(F)C4)nc(Cl)nc32)[C@H](O)[C@@H]1O [Compound 164, [(2S,3S,4R,5R)-5-[2-chloro-4-(3,3-difluoro-pyrrolidin-1-yl)-pyrrolo[2,3-d]-pyrimidin-7-yl]-3,4-dihydroxy-tetrahydro-furan-2-yl]methyl-sulfonylmethylphos-phonic acid] | < 0.01 | < 0.01
C[C@@H](Nc1nc(Cl)nc2c1ccn2[C@@H]1O[C@H](CS(=O)(=O)CP(=O)(O)O)[C@@H](O)[C@H]1O)c1ccc(F)cc1 [Compound 167, [(2S,3S,4R,5R)-5-[2-chloro-4-[[(1R)-1-(4-fluorophenyl)ethyl]-amino]pyrrolo[2,3-d]-pyrimidin-7-yl]-3,4-dihydroxy-tetrahydro-furan-2-yl]methyl-sulfonylmethylphos-phonic acid] | < 0.01 | < 0.01
C[C@@H](Nc1nc(Cl)nc2c1ccn2[C@@H]1O[C@H](CS(=O)(=O)CP(=O)(O)O)[C@@H](O)[C@H]1O)c1ccccc1F [Compound 168, [(2S,3S,4R,5R)-5-[2-chloro-4-[[(1R)-1-(2-fluorophenyl)ethyl]-amino]pyrrolo[2,3-d]-pyrimidin-7-yl]-3,4-dihydroxy-tetrahydro-furan-2-yl]methyl-sulfonylmethylphos-phonic acid] | < 0.01 | < 0.01
Cc1ccc([C@@H](C)Nc2nc(Cl)nc3c2ccn3[C@@H]2O[C@H](CS(=O)(=O)CP(=O)(O)O)[C@@H](O)[C@H]2O)cc1 [Compound 169, [(2S,3S,4R,5R)-5-[2-chloro-4-[[(1R)-1-(p-tolyl)ethyl]amino]-pyrrolo[2,3-d]-pyrimidin-7-yl]-3,4-dihydroxy-tetrahydro-furan-2-yl]methyl-sulfonylmethylphos-phonic acid] | < 0.01 | < 0.01
Cc1ccc([C@H](C)Nc2nc(Cl)nc3c2ccn3[C@@H]2O[C@H](CS(=O)(=O)CP(=O)(O)O)[C@@H](O)[C@H]2O)cc1 [Compound 170, [(2S,3S,4R,5R)-5-[2-chloro-4-[[(1S)-1-(p-tolyl)ethyl]amino]-pyrrolo[2,3-d]-pyrimidin-7-yl]-3,4-dihydroxy-tetrahydro-furan-2-yl]methyl-sulfonylmethylphos-phonic acid] | < 0.01 | < 0.01
O=P(O)(O)CS(=O)(=O)C[C@H]1O[C@@H](n2ccc3c(NC4CCC(F)(F)C4)nc(Cl)nc32)[C@H](O)[C@@H]1O (stereo partly drawn) [Compound 171, [(2S,3S,4R,5R)-5-[2-chloro-4-[(3,3-difluoro-cyclopentyl)amino]-pyrrolo[2,3-d]-pyrimidin-7-yl]-3,4-dihydroxy-tetrahydro-furan-2-yl]methyl-sulfonylmethylphos-phonic acid] | < 0.01 | < 0.01
O=P(O)(O)CS(=O)(=O)C[C@H]1O[C@@H](n2ccc3c(NC4CCC4)nc(Cl)nc32)[C@H](O)[C@@H]1O [Compound 172, [(2S,3S,4R,5R)-5-[2-chloro-4-(cyclobutyl-amino)pyrrolo[2,3-d]-pyrimidin-7-yl]-3,4-dihydroxy-tetrahydro-furan-2-yl]methyl-sulfonylmethylphos-phonic acid] | < 0.01 | < 0.01
O=P(O)(O)CS(=O)(=O)C[C@H]1O[C@@H](n2ccc3c(NC4CC(F)(F)C4)nc(Cl)nc32)[C@H](O)[C@@H]1O [Compound 173, [(2S,3S,4R,5R)-5-[2-chloro-4-[(3,3-difluoro-cyclobutyl)amino]-pyrrolo[2,3-d]-pyrimidin-7-yl]-3,4-dihydroxy-tetrahydro-furan-2-yl]methyl-sulfonylmethylphos-phonic acid] | < 0.01 | < 0.01

More lines, now with the values ahead:

IC50 (Human CD73) [µM] | IC50 [1] [µM] | SMILES
< 0.01 | 0.01 to 0.1 | C[C@H](Nc1nc(Cl)nc2c1ccn2[C@@H]1O[C@H](CS(=O)(=O)CP(=O)(O)O)[C@@H](O)[C@H]1O)c1ccccc1 [Compound 153, [(2S,3S,4R,5R)-5-[2-chloro-4-[[(1S)-1-phenylethyl]amino]-pyrrolo[2,3-d]-pyrimidin-7-yl]-3,4-dihydroxy-tetrahydro-furan-2-yl]methyl-sulfonylmethylphos-phonic acid]
< 0.01 | < 0.01 | C[C@@H](Nc1nc(Cl)nc2c1ccn2[C@@H]1O[C@H](CS(=O)(=O)CP(=O)(O)O)[C@@H](O)[C@H]1O)c1ccccc1 [Compound 154, [(2S,3S,4R,5R)-5-[2-chloro-4-[[(1R)-1-phenylethyl]amino]-pyrrolo[2,3-d]-pyrimidin-7-yl]-3,4-dihydroxy-tetrahydro-furan-2-yl]methyl-sulfonylmethylphos-phonic acid]
< 0.01 | < 0.01 | O=P(O)(O)CS(=O)(=O)C[C@H]1O[C@@H](n2ccc3c(NC4CCCC4)nc(Cl)nc32)[C@H](O)[C@@H]1O [Compound 155, (((((2S,3S,4R,5R)-5-(2-chloro-4-(cyclopentylamino)-7H-pyrrolo[2,3-d]pyrimidin-7-yl)-3,4-dihydroxytetrahydrofuran-2-yl)methyl)sulfonyl)methyl)phosphonic acid]
< 0.01 | < 0.01 | O=P(O)(O)CS(=O)(=O)C[C@H]1O[C@@H](n2ccc3c(N4CC5CCCC5C4)nc(Cl)nc32)[C@H](O)[C@@H]1O (stereo partly drawn) [Compound 156, [(2S,3S,4R,5R)-5-[4-(3,3a,4,5,6,6a-hexa-hydro-1H-cyclopenta-[c]pyrrol-2-yl)-2-chloro-pyrrolo[2,3-d]-pyrimidin-7-yl]-3,4-dihydroxy-tetrahydro-hydrofuran-2-yl]-methylsulfonylmethyl-phosphonic acid]
< 0.01 | < 0.01 | C[C@H](c1ccccc1)N(C)c1nc(Cl)nc2c1ccn2[C@@H]1O[C@H](CS(=O)(=O)CP(=O)(O)O)[C@@H](O)[C@H]1O [Compound 157, [(2S,3S,4R,5R)-5-[2-chloro-4-[methyl-[(1R)-1-phenylethyl]-amino]pyrrolo[2,3-d]-pyrimidin-7-yl]-3,4-dihydroxy-tetrahydro-furan-2-yl]methyl-sulfonylmethylphos-phonic acid]
< 0.01 | < 0.01 | N#Cc1nc(N2CC3CCCC3C2)c2ccn([C@@H]3O[C@H](CS(=O)(=O)CP(=O)(O)O)[C@@H](O)[C@H]3O)c2n1 (stereo partly drawn) [Compound 158, [(2S,3S,4R,5R)-5-[4-(3,3a,4,5,6,6a-hexa-hydro-1H-cyclopenta-[c]pyrrol-2-yl)-2-cyano-pyrrolo[2,3-d]-pyrimidin-7-yl]-3,4-dihydroxy-tetrahydro-furan-2-yl]methyl-sulfonylmethylphos-phonic acid]
< 0.01 | < 0.01 | O=P(O)(O)CS(=O)(=O)C[C@H]1O[C@@H](n2ccc3c(NC4CC5CC5C4)nc(Cl)nc32)[C@H](O)[C@@H]1O (stereo partly drawn) [Compound 159, [(2S,3S,4R,5R)-5-[4-(3-bicyclo[3.1.0]-hexanylamino)-2-chloro-pyrrolo[2,3-d]-pyrimidin-7-yl]-3,4-dihydroxy-tetrahydro-furan-2-yl]methyl-sulfonylmethylphos-phonic acid]
